The source of these data is US20230365592A1 (Agios Pharmaceuticals, Inc., priority 2022, published 2023).

As usually defined, the AC50 is the midpoint of the concentration-response curve, whichever way the signal moves.

This assay deals with T1, human PAH with the R408W mutation (Homo sapiens, UniProt P00439, R408W).
T1 construct: expressed in transfected cells
T1 sequence (P00439 1-452 R408W): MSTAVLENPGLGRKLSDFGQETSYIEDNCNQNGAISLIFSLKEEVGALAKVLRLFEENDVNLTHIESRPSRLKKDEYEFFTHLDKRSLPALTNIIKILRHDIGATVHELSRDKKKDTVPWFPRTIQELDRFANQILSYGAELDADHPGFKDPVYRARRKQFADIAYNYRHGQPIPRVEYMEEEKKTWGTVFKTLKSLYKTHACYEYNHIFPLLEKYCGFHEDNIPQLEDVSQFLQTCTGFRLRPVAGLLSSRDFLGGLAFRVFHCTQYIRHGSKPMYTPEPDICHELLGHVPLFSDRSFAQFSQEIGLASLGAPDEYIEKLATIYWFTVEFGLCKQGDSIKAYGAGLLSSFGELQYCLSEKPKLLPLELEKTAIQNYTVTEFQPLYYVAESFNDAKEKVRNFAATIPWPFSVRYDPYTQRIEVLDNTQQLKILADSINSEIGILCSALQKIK
Nature of the assay: Cell Based Phenylalanine Flux Assay.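 Also: after compound treatment, cells received sepiapterin plus isotope-labelled Phenylalanine for 4 hours, then labelled Tyrosine in the medium was quantified, 10-point 2-fold dilution series run in duplicate.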 The conditions noted are these: A375 cells expressing human R408W PAH; 24 hrs compound incubation; 13C-Tyrosine by LC-MS; average where tested multiple times; read-out: AC50.
As to `O=C(c1nnc(-c2cnn(C(F)F)c2)o1)N1CCc2[nH]cnc2[C@H]1c1cc2c(C(F)(F)F)cccn2n1` [Example 906, (S)-(5-(1-(difluoromethyl)-1H-pyrazol-4-yl)-1,3,4-oxadiazol-2-yl)(4-(4-(trifluoromethyl)pyrazolo[1,5-a]pyridin-2-yl)-6,7-dihydro-1H-imidazo[4,5-c]pyridin-5(4H)-yl)methanone], the half-maximal activity concentration (AC50) is below 500 nM.
To `O=C(c1nnc(-c2cnn(C(F)F)c2)o1)N1CCc2[nH]cnc2[C@@H]1c1cc2c(C(F)(F)F)cccn2n1` [Example 907, (R)-(5-(1-(difluoromethyl)-1H-pyrazol-4-yl)-1,3,4-oxadiazol-2-yl)(4-(4-(trifluoromethyl)pyrazolo[1,5-a]pyridin-2-yl)-6,7-dihydro-1H-imidazo[4,5-c]pyridin-5(4H)-yl)methanone] belongs above 5000 nM; to `O=C(c1nnc(-c2ccn(C(F)F)n2)o1)N1CCc2[nH]cnc2[C@@H]1c1cc2c(C(F)(F)F)cccn2n1` [Example 908, (R)-(5-(1-(difluoromethyl)-1H-pyrazol-3-yl)-1,3,4-oxadiazol-2-yl)(4-(4-(trifluoromethyl)pyrazolo[1,5-a]pyridin-2-yl)-6,7-dihydro-1H-imidazo[4,5-c]pyridin-5(4H)-yl)methanone], 1000 to 5000 nM; to `O=C(c1nnc(-c2ccn(C(F)F)n2)o1)N1CCc2[nH]cnc2[C@H]1c1cc2c(C(F)(F)F)cccn2n1` [Example 909, (S)-(5-(1-(difluoromethyl)-1H-pyrazol-3-yl)-1,3,4-oxadiazol-2-yl)(4-(4-(trifluoromethyl)pyrazolo[1,5-a]pyridin-2-yl)-6,7-dihydro-1H-imidazo[4,5-c]pyridin-5(4H)-yl)methanone], below 500 nM.
To `COc1ccc(-c2nnc(C(=O)N3CCc4[nH]cnc4[C@H]3c3cc4cccc(C)n4n3)o2)nc1` [Example 910, (S)-(5-(5-methoxypyridin-2-yl)-1,3,4-oxadiazol-2-yl)(4-(7-methylpyrazolo[1,5-a]pyridin-2-yl)-6,7-dihydro-1H-imidazo[4,5-c]pyridin-5(4H)-yl)methanone] belongs 500 to 1000 nM; to `COc1ccc(-c2nnc(C(=O)N3CCc4[nH]cnc4[C@@H]3c3cc4cccc(C)n4n3)o2)nc1` [Example 911, (R)-(5-(5-methoxypyridin-2-yl)-1,3,4-oxadiazol-2-yl)(4-(7-methylpyrazolo[1,5-a]pyridin-2-yl)-6,7-dihydro-1H-imidazo[4,5-c]pyridin-5(4H)-yl)methanone], above 5000 nM.
As to `Cc1cccc2cc([C@H]3c4nc[nH]c4CCN3C(=O)c3nnc(-c4ncccc4F)o3)nn12` [Example 913, (R)-(5-(3-fluoropyridin-2-yl)-1,3,4-oxadiazol-2-yl)(4-(7-methylpyrazolo[1,5-a]pyridin-2-yl)-6,7-dihydro-1H-imidazo[4,5-c]pyridin-5(4H)-yl)methanone], the AC50 was above 5000 nM.
To `Cc1cccc2cc([C@@H]3c4nc[nH]c4CCN3C(=O)c3nnc(-c4cnn(C(F)F)c4)o3)nn12` [Example 914, (S)-(5-(1-(difluoromethyl)-1H-pyrazol-4-yl)-1,3,4-oxadiazol-2-yl)(4-(7-methylpyrazolo[1,5-a]pyridin-2-yl)-6,7-dihydro-1H-imidazo[4,5-c]pyridin-5(4H)-yl)methanone] belongs 500 to 1000 nM; to `Cc1nc(C(=O)N2CCc3[nH]cnc3[C@H]2c2cc3c(C)cccn3n2)n(C)n1` [Example 916, (S)-(1,3-dimethyl-1H-1,2,4-triazol-5-yl)(4-(4-methylpyrazolo[1,5-a]pyridin-2-yl)-6,7-dihydro-1H-imidazo[4,5-c]pyridin-5(4H)-yl)methanone], below 500 nM.
To `COc1cccn2nc([C@@H]3c4nc[nH]c4CCN3C(=O)c3cc(C)nn3C)cc12` [Example 918, (S)-(1,3-dimethyl-1H-pyrazol-5-yl)(4-(4-methoxypyrazolo[1,5-a]pyridin-2-yl)-6,7-dihydro-1H-imidazo[4,5-c]pyridin-5(4H)-yl)methanone] belongs below 500 nM.
The value for `COc1cccn2nc([C@H]3c4nc[nH]c4CCN3C(=O)c3cc(C)nn3C)cc12` [Example 919, (R)-(1,3-dimethyl-1H-pyrazol-5-yl)(4-(4-methoxypyrazolo[1,5-a]pyridin-2-yl)-6,7-dihydro-1H-imidazo[4,5-c]pyridin-5(4H)-yl)methanone] was above 5000 nM; that for `Cn1cnc(-c2nc(C(F)F)c(C(=O)N3CCc4[nH]cnc4[C@H]3c3cc4c(F)cccn4n3)o2)c1` [Example 921, (S)-(4-(difluoromethyl)-2-(1-methyl-1H-imidazol-4-yl)oxazol-5-yl)(4-(4-fluoropyrazolo[1,5-a]pyridin-2-yl)-6,7-dihydro-1H-imidazo[4,5-c]pyridin-5(4H)-yl)methanone] was below 500 nM; that for `Cc1cccn2nc([C@@H]3c4nc[nH]c4CCN3C(=O)c3nnc(C(C)(C)F)o3)cc12` [Example 922, (S)-(5-(2-fluoropropan-2-yl)-1,3,4-oxadiazol-2-yl)(4-(4-methylpyrazolo[1,5-a]pyridin-2-yl)-6,7-dihydro-1H-imidazo[4,5-c]pyridin-5(4H)-yl)methanone] was below 500 nM.
Consider `Cc1cccn2nc([C@H]3c4nc[nH]c4CCN3C(=O)c3nnc(C(C)(C)F)o3)cc12` [Example 923, (R)-(5-(2-fluoropropan-2-yl)-1,3,4-oxadiazol-2-yl)(4-(4-methylpyrazolo[1,5-a]pyridin-2-yl)-6,7-dihydro-1H-imidazo[4,5-c]pyridin-5(4H)-yl)methanone], for which the concentration at half-maximal activity (AC50) is above 5000 nM.
Take `Cc1cccn2nc([C@@H]3c4nc[nH]c4CCN3C(=O)c3nnc(C4CC4)o3)cc12` [Example 924, (S)-(5-cyclopropyl-1,3,4-oxadiazol-2-yl)(4-(4-methylpyrazolo[1,5-a]pyridin-2-yl)-6,7-dihydro-1H-imidazo[4,5-c]pyridin-5(4H)-yl)methanone]: the AC50 was below 500 nM.
To `Cc1cnn(C)c1-c1nnc(C(=O)N2CCc3[nH]cnc3[C@H]2c2cc3c(C)cccn3n2)o1` [Example 926, (S)-(5-(1,4-dimethyl-1H-pyrazol-5-yl)-1,3,4-oxadiazol-2-yl)(4-(4-methylpyrazolo[1,5-a]pyridin-2-yl)-6,7-dihydro-1H-imidazo[4,5-c]pyridin-5(4H)-yl)methanone] belongs below 500 nM.
`Cc1cnn(C)c1-c1nnc(C(=O)N2CCc3[nH]cnc3[C@@H]2c2cc3c(C)cccn3n2)o1` [Example 927, (R)-(5-(1,4-dimethyl-1H-pyrazol-5-yl)-1,3,4-oxadiazol-2-yl)(4-(4-methylpyrazolo[1,5-a]pyridin-2-yl)-6,7-dihydro-1H-imidazo[4,5-c]pyridin-5(4H)-yl)methanone]: the AC50 is above 5000 nM.
To `Cc1cnn(C)c1-c1nnc(C(=O)N2CCc3[nH]cnc3[C@H]2c2cc3c(F)cccn3n2)o1` [Example 928, (S)-(5-(1,4-dimethyl-1H-pyrazol-5-yl)-1,3,4-oxadiazol-2-yl)(4-(4-fluoropyrazolo[1,5-a]pyridin-2-yl)-6,7-dihydro-1H-imidazo[4,5-c]pyridin-5(4H)-yl)methanone] belongs below 500 nM.
As for `Cc1cnn(C)c1-c1nnc(C(=O)N2CCc3[nH]cnc3[C@@H]2c2cc3c(F)cccn3n2)o1` [Example 929, (R)-(5-(1,4-dimethyl-1H-pyrazol-5-yl)-1,3,4-oxadiazol-2-yl)(4-(4-fluoropyrazolo[1,5-a]pyridin-2-yl)-6,7-dihydro-1H-imidazo[4,5-c]pyridin-5(4H)-yl)methanone], the AC50 was above 5000 nM.
The value for `Cc1cccn2nc([C@H]3c4nc[nH]c4CCN3C(=O)c3oc(-c4cn(C)cn4)nc3C(F)F)cc12` [Example 930, (R)-(4-(difluoromethyl)-2-(1-methyl-1H-imidazol-4-yl)oxazol-5-yl)(4-(4-methylpyrazolo[1,5-a]pyridin-2-yl)-6,7-dihydro-1H-imidazo[4,5-c]pyridin-5(4H)-yl)methanone] was above 5000 nM; that for `Cc1cccn2nc([C@@H]3c4nc[nH]c4CCN3C(=O)c3oc(-c4cn(C)cn4)nc3C(F)F)cc12` [Example 931, (S)-(4-(difluoromethyl)-2-(1-methyl-1H-imidazol-4-yl)oxazol-5-yl)(4-(4-methylpyrazolo[1,5-a]pyridin-2-yl)-6,7-dihydro-1H-imidazo[4,5-c]pyridin-5(4H)-yl)methanone] was below 500 nM.
With `COc1ccc(-c2nnc(C(=O)N3CCc4[nH]cnc4[C@H]3c3cc4c(C(F)(F)F)cccn4n3)o2)nc1` [Example 932, (S)-(5-(5-methoxypyridin-2-yl)-1,3,4-oxadiazol-2-yl)(4-(4-(trifluoromethyl)pyrazolo[1,5-a]pyridin-2-yl)-6,7-dihydro-1H-imidazo[4,5-c]pyridin-5(4H)-yl)methanone], the AC50 was below 500 nM.
Consider `COc1ccc(-c2nnc(C(=O)N3CCc4[nH]cnc4[C@@H]3c3cc4c(C(F)(F)F)cccn4n3)o2)nc1` [Example 933, (R)-(5-(5-methoxypyridin-2-yl)-1,3,4-oxadiazol-2-yl)(4-(4-(trifluoromethyl)pyrazolo[1,5-a]pyridin-2-yl)-6,7-dihydro-1H-imidazo[4,5-c]pyridin-5(4H)-yl)methanone], for which the half-maximal activity concentration (AC50) is above 5000 nM.
`Cn1cnc(-c2nnc(C(=O)N3CCc4[nH]cnc4[C@@H]3c3cc4c(C(F)(F)F)cccn4n3)o2)c1` [Example 935, (R)-(5-(1-methyl-1H-imidazol-4-yl)-1,3,4-oxadiazol-2-yl)(4-(4-(trifluoromethyl)pyrazolo[1,5-a]pyridin-2-yl)-6,7-dihydro-1H-imidazo[4,5-c]pyridin-5(4H)-yl)methanone]: the AC50 was above 5000 nM.
